{
  "source": "paper PMC10820640",
  "about": "“An Intravenous Pharmacokinetic Study of Cannabidiol Solutions in Piglets through the Application of a Validated Ultra-High-Pressure Liquid Chromatography Coupled to Tandem Mass Spectrometry Method for the Simultaneous Quantification of CBD and Its Carboxylated Metabolite in Plasma” (Pharmaceutics, 2024)",
  "key": {"[1]": {"design": "method as in PMID 34400185", "settings": "reported in the literature; cited from earlier work"}, "[2]": {"test": "Intravenous pharmacokinetic study of CBD:HP-β-CD solution in piglets (UHPLC-MS/MS plasma quantification)", "assay_type": "in vivo, Large White piglets", "design": "A (macro constant): unit not given beside the values; γ (macro constant) / α (macro constant) / B (macro constant) / β (macro constant) / C (macro constant): unit not given here", "settings": "for AUC(0-t) / Cmax: piglet plasma, IV 0.3 mg/kg CBD, non-compartmental analysis, normalized to dose", "protocol": "The in vivo study was performed within the PigForLife® (CER Group Facilities) GLP structure (Marloie, Belgium). The study protocols were approved by the Local Ethical Commission before starting the study and complied with the Belgian regulation as published in the «Royal Decree of 29 May 2013 on the protection of experimental animals, A.G.W. 30 November 2017».\nSterile and isotonic CBD:HP-β-CD 100 mM (1.2 mg CBD/mL) solutions were prepared. A HP-β-CD stock solution (200 mM) was prepared by dissolving 31.0 g of HP-β-CD up to 100 mL with milliQ water. CBD:HP-β-CD complexes were prepared by adding an excess of CBD (45 mg) powder to 5 mL of milliQ water and 5 mL of the HP-β-CD stock solution, added with 84 mg of NaCl. The suspensions were kept in a rotating water bath set at 37 °C for 12 h. The suspensions were finally filtered through a 0.2 µm PHENEX® PTFE filter in laminar flow insulator conditions. The osmolarity and the pH value of the solutions were determined using a Freezing Point Osmometer (Löser, Delta Labo, Avignon, France) and a pH meter (Seven Easy, Mettler Toledo, Zaventem, Belgium), respectively. The solutions were injected to three Large White piglets (male and female, between 8 and 10 kg) at a dose of 0.3 mg/kg, as detailed in Table 3.\nThe animals were born on site and used in good health. The animals were housed together in pens of about 40 m^2 and an enriched environment was provided. Natural temperature and light cycles were used in a straw litter. During storage, the animals were fed ad libitum with a balanced pellet diet and were not given any curative or prophylactic veterinary drugs or additives during the study period. Tap water was available ad libitum. The piglets were fasted overnight ([…]) before receiving the formulations. All piglets were clinically examined before the study and before sampling. Blood samples (2 mL in EDTA tubes) were taken at 5 min, 10 min, 20 min, 30 min 45 min, 60 min, 90 min, 2 h, 4 h and 8 h. Blood samples were stored at 4 °C and centrifuged at 2500× g for 10 min. Plasma samples were then frozen at −80 °C until their analysis.\nPharmacokinetic analyses were evaluated by using the software Phoenix WinNonlin 8.4 version (Certara, Princeton, NJ, USA). Cmax and AUClast were determined through a non-compartmental pharmacokinetic analysis using the linear trapezoidal linear interpolation calculation method. Obtained values were normalized do the dose administered. The volumes of distribution (V1 and Vss), clearance and macro (A, B, C, α, β, γ) and micro (k10, k12, k21, k13, k31) constants were determined assuming a 2- or 3-compartment model. The model offering the best compromise between fitting and the number of parameters was selected based on an F test approach."}, "[3]": {"design": "method as in PMID 31173966", "settings": "mice, CBD emulsion IV 10 mg/kg; cited from earlier work"}, "[4]": {"design": "method as in PMID 35895770", "settings": "horses, IV CBD in DMSO 0.1 mg/kg; cited from earlier work"}, "[5]": {"design": "method as in PMID 30534073", "settings": "humans, cited from earlier work"}, "[6]": {"settings": "both sexes, Large White, pig, n = 3"}, "[7]": {"settings": "IV-bolus three-compartment model, n = 2"}, "[8]": {"settings": "IV-bolus three-compartment model, n = 3"}, "[9]": {"settings": "IV-bolus two-compartment model, n = 2"}, "[10]": {"settings": "IV-bolus two-compartment model, n = 3"}, "[11]": {"settings": "piglets, IV, two-compartment model"}},
  "note": "Read-outs that look alike come from different tables or passages of the source.",
  "data": [
    {"smiles": "C=C(C)C1CCC(C(=O)O)=CC1c1c(O)cc(CCCCC)cc1O", "note": "(centres unmarked) [7-COOH-CBD, 7-COOH-cannabidiol]", "values": [
      {"measurement": "metabolite plasmatic concentration relative to that of CBD", "setting": "[1]", "value": 40, "unit": "fold"},
      {"measurement": "AUC(0-t)", "setting": "[2]; [6]", "value": "3930 ± 572", "unit": "ng·h/mL"},
      {"measurement": "Cmax", "setting": "[2]; [6]", "value": "610 ± 169", "unit": "ng/mL"},
      {"measurement": "earliest time metabolite concentrations were observed", "setting": "[2]; piglet plasma after IV CBD 0.3 mg/kg, first sampling point", "value": 5, "unit": "min"}
    ]},
    {"smiles": "C=C(C)[C@@H]1CCC(C)=C[C@H]1c1c(O)cc(CCCCC)cc1O", "note": "[CBD, Cannabidiol]", "values": [
      {"measurement": "A (macro constant)", "setting": "[2]; [7]", "value": "638.52 ± 60.91"},
      {"measurement": "B (macro constant)", "setting": "[2]; [7]", "value": "330.39 ± 41.34"},
      {"measurement": "C (macro constant)", "setting": "[2]; [7]", "value": "17.71 ± 15.74"},
      {"measurement": "α (macro constant)", "setting": "[2]; [7]", "value": "12.28 ± 7.90"},
      {"measurement": "β (macro constant)", "setting": "[2]; [7]", "value": "0.80 ± 0.19"},
      {"measurement": "γ (macro constant)", "setting": "[2]; [7]", "value": "0.09 ± 0.12"},
      {"measurement": "A (macro constant)", "setting": "[2]; [8]", "value": "640.14 ± 43.16"},
      {"measurement": "C (macro constant)", "setting": "[2]; [8]", "value": "10.56 ± 6.33"},
      {"measurement": "β (macro constant)", "setting": "[2]; [8]", "value": "0.70 ± 0.21"},
      {"measurement": "γ (macro constant)", "setting": "[2]; [8]", "value": "316.02 ± 38.40"},
      {"measurement": "A (macro constant)", "setting": "[2]; [9]", "value": "500.89 ± 129.30"},
      {"measurement": "B (macro constant)", "setting": "[2]; [9]", "value": "133.91 ± 105.05"},
      {"measurement": "α (macro constant)", "setting": "[2]; [9]", "value": "2.75 ± 2.18"},
      {"measurement": "β (macro constant)", "setting": "[2]; [9]", "value": "0.33 ± 0.10"},
      {"measurement": "A (macro constant)", "setting": "[2]; [10]", "value": "542.53 ± 116.45"},
      {"measurement": "B (macro constant)", "setting": "[2]; [10]", "value": "168.95 ± 95.92"},
      {"measurement": "α (macro constant)", "setting": "[2]; [10]", "value": "3.71 ± 2.26"},
      {"measurement": "β (macro constant)", "setting": "[2]; [10]", "value": "0.34 ± 0.07"},
      {"measurement": "clearance", "setting": "[2]; both sexes, Large White, pig, plasma, 0.3 mg/kg, piglets, IV, two-compartment model, read-out: Cl (clearance) (converted)", "value": 25.2, "unit": "mL/min"},
      {"measurement": "Vd", "setting": "[2]; both sexes, Large White, pig, plasma, 0.3 mg/kg, piglets, IV, two-compartment model, read-out: Vss (volume at steady state)", "value": "3.26 ± 0.287", "unit": "L"},
      {"measurement": "AUC(0-t)", "setting": "[2]; [6]", "value": "639 ± 79.2", "unit": "ng·h/mL"},
      {"measurement": "Cmax", "setting": "[2]; [6]", "value": "600 ± 75.8", "unit": "ng/mL"},
      {"measurement": "half-life", "setting": "[2]; both sexes, Large White, pig, piglets, IV 0.3 mg/kg CBD:HP-β-CD solution, experimental plasma profile, read-out: apparent distribution half-life (converted)", "value": 15, "unit": "min"},
      {"measurement": "elimination half-life", "setting": "[2]; piglets, IV 0.3 mg/kg CBD:HP-β-CD solution, experimental plasma profile", "value": "two"},
      {"measurement": "Capacity (k12/k21)", "setting": "[2]; [11]", "value": 1.5},
      {"measurement": "Depth (k10/k12)", "setting": "[2]; [11]", "value": 0.58},
      {"measurement": "V1 (volume of the central compartment)", "setting": "[2]; [11]", "value": "1512.43 ± 538.41", "unit": "mL"},
      {"measurement": "fc (ratio of quantity in the central compartment over total quantity, β/k1-0)", "setting": "[2]; [11]", "value": 0.33},
      {"measurement": "k1-0 (micro constant)", "setting": "[2]; [11]", "value": "1.04 ± 0.20", "unit": "h⁻¹"},
      {"measurement": "k1-2 (micro constant)", "setting": "[2]; [11]", "value": "1.80 ± 1.43", "unit": "h⁻¹"},
      {"measurement": "k2-1 (micro constant)", "setting": "[2]; [11]", "value": "1.20 ± 0.74", "unit": "h⁻¹"},
      {"measurement": "clearance", "setting": "[3]", "value": 3.4, "unit": "L/h/kg"},
      {"measurement": "half-life", "setting": "[3]", "value": 3.9, "unit": "h"},
      {"measurement": "half-life", "setting": "[4]", "value": 3.15, "unit": "h"},
      {"measurement": "half-life of elimination (t1/2)", "setting": "[5]; after chronic oral administration", "value": "several days"},
      {"measurement": "clearance", "setting": "[5]; following an intravenous injection", "value": 74.4, "unit": "L/h"},
      {"measurement": "half-life of elimination (t1/2)", "setting": "[5]; pulmonary or single oral administration", "value": "around one or two"}
    ]}
  ]
}
